Measured values reported in patent publication US20230312528A1, “2-OXO-IMIDAZOLIDINE-4-CARBOXAMIDES AS NAV1.8 INHIBITORS” (Merck Sharp & Dohme LLC, priority 2020, published 2023).

Molecular target: human NaV1.8 (Homo sapiens (Human), UniProt Q9Y5Y9)
Assay: Nav1.8 Qube automated patch-clamp assay
Format: cell-based
Details: human NaV1.8 stably expressed in HEK 293 cells; automated 384-well patch-clamp; resting or inactivated state not specified
Method in brief: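 IC50 values from Hill-equation fits of offline percent inhibition: the 1st pulse gave resting and the 10th pulse inactivated-state inhibition. Stimulus was a 10 s, 1 Hz train to 10 mV (holding −90 mV, −67 mV interpulse) applied at room temperature to HEK293 cells stably expressing human NaV1.8 (Qube).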

Chain of human NaV1.8 (Q9Y5Y9 whole entry): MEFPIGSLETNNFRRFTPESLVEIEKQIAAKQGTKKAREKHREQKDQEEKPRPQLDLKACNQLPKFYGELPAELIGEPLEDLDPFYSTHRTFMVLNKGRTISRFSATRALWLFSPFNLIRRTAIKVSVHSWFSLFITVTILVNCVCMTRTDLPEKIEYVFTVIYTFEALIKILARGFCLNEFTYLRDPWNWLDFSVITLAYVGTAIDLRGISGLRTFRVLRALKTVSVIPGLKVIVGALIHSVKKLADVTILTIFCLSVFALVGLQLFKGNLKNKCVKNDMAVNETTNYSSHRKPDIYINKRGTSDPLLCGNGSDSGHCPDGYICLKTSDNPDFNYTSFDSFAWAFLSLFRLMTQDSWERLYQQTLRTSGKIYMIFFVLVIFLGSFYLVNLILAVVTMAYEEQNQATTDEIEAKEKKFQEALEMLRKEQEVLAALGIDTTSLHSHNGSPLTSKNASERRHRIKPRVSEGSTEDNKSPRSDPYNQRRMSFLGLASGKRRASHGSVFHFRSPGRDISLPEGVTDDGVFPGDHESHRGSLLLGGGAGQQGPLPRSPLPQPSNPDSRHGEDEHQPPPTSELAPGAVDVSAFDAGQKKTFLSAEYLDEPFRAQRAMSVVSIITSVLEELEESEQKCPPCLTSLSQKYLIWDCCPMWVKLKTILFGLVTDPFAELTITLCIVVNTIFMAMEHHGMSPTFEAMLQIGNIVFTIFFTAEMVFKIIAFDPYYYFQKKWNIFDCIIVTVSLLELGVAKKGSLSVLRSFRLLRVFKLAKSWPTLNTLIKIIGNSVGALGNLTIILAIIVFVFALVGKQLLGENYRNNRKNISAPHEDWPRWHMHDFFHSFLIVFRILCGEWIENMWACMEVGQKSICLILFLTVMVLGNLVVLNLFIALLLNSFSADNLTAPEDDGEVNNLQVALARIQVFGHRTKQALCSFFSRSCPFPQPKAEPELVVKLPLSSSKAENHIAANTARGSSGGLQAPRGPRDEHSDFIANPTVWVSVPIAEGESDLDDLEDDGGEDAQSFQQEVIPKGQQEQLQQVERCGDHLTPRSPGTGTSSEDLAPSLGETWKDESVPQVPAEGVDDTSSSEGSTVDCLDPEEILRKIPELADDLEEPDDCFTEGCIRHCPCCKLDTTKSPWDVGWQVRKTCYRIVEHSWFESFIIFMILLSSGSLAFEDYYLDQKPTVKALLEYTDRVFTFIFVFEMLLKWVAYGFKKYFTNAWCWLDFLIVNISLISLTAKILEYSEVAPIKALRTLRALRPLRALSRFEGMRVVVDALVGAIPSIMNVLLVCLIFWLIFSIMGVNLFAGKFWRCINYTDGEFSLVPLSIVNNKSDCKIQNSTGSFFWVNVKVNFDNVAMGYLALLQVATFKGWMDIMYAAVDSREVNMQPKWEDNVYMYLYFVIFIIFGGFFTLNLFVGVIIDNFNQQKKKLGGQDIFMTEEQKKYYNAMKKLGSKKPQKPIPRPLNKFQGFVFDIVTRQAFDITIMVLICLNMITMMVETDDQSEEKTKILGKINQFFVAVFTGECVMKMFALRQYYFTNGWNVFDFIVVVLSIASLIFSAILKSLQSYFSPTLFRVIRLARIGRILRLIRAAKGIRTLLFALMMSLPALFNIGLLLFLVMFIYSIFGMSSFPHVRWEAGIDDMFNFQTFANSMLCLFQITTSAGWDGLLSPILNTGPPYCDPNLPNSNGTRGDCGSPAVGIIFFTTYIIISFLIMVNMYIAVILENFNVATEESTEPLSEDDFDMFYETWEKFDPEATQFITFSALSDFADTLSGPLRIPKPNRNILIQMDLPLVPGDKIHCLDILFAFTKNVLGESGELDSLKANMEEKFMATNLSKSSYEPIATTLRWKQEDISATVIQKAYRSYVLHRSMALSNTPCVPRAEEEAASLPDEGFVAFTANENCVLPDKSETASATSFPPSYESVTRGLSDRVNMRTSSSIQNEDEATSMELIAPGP

| IC50 [nM] | SMILES |
| --- | --- |
| 39 | O=C1NC[C@@H](C(=O)NC(c2ccc(OCC(F)(F)F)nc2)c2ccc(F)c(Cl)c2F)N1 (single isomer, unassigned) [Example 33B, (S)—N—((R or S)-(3-chloro-2,4-difluorophenyl)(6-(2,2,2-trifluoroethoxy)pyridin-3-yl)methyl)-2-oxoimidazolidine-4-carboxamide] |
| 3.8 | O=C1NC[C@@H](C(=O)NC(c2ccc(F)c(Cl)c2F)[C@H]2C[C@H](C(F)(F)F)C2)N1 (single isomer, unassigned) [Example 34A, (S)—N—((R or S)-(3-chloro-2,4-difluorophenyl)(trans-3-(trifluoromethyl)cyclobutyl)methyl)-2-oxoimidazolidine-4-carboxamide] |
| 76 | O=C1NC[C@@H](C(=O)NC(c2ccc(F)c(Cl)c2F)[C@H]2C[C@H](C(F)(F)F)C2)N1 (single isomer, unassigned) [Example 34B, (S)—N—((R or S)-(3-chloro-2,4-difluorophenyl)(trans-3-(trifluoromethyl)cyclobutyl)methyl)-2-oxoimidazolidine-4-carboxamide] |
| 2.4 | O=C1NC[C@@H](C(=O)NC(c2cnc(OCC(F)(F)F)s2)c2ccc(F)c(Cl)c2F)N1 (single isomer, unassigned) [Example 35A, (S)-N-((R or S)-(3-chloro-2,4-difluorophenyl)(2-(2,2,2-trifluoroethoxy)thiazol-5-yl)methyl)-2-oxoimidazolidine-4-carboxamide] |
| 64 | O=C1NC[C@@H](C(=O)NC(c2cnc(OCC(F)(F)F)s2)c2ccc(F)c(Cl)c2F)N1 (single isomer, unassigned) [Example 35B, (S)-N-((R or S)-(3-chloro-2,4-difluorophenyl)(2-(2,2,2-trifluoroethoxy)thiazol-5-yl)methyl)-2-oxoimidazolidine-4-carboxamide] |
| 12 | O=C1NC[C@@H](C(=O)NC(c2cnc(OC(F)F)s2)c2ccc(F)c(Cl)c2F)N1 (single isomer, unassigned) [Example 36A, (S)-N-((R or S)-(3-chloro-2,4-difluorophenyl)(2-(difluoromethoxy)thiazol-5-yl)methyl)-2-oxoimidazolidine-4-carboxamide] |
| 186 | O=C1NC[C@@H](C(=O)NC(c2cnc(OC(F)F)s2)c2ccc(F)c(Cl)c2F)N1 (single isomer, unassigned) [Example 36B, (S)-N-((R or S)-(3-chloro-2,4-difluorophenyl)(2-(difluoromethoxy)thiazol-5-yl)methyl)-2-oxoimidazolidine-4-carboxamide] |
| 11 | O=C1NC[C@@H](C(=O)NC(c2ccc(F)c(Cl)c2F)C2CC3(C2)CC(F)(F)C3)N1 (single isomer, unassigned) [Example 37, (S)-N-((R or S)-(3-chloro-2,4-difluorophenyl)(6,6-difluorospiro[3.3]heptan-2-yl)methyl)-2-oxoimidazolidine-4-carboxamide] |
| 1.1 | O=C1NC[C@@H](C(=O)NC(c2cnc(C(F)(F)F)c(Cl)c2)c2ccc(F)c(Cl)c2F)N1 (single isomer, unassigned) [Example 38, (S)-N-((R or S)-(3-chloro-2,4-difluorophenyl)(5-chloro-6-(trifluoromethyl)pyridin-3-yl)methyl)-2-oxoimidazolidine-4-carboxamide] |
| 1.3 | O=C1NC[C@@H](C(=O)NC(c2ccc(OC(F)(F)F)c(Cl)c2)c2ccc(OC(F)(F)F)cn2)N1 (single isomer, unassigned) [Example 39A, (S)—N—((R or S)-(3-chloro-4-(trifluoromethoxy)phenyl)(5-(trifluoromethoxy)pyridin-2-yl)methyl)-2-oxoimidazolidine-4-carboxamide] |

The remaining lines, values behind:

| SMILES | IC50 [nM] |
| --- | --- |
| O=C1NC[C@@H](C(=O)NC(c2ccc(F)c(Cl)c2)c2ccn(CC(F)(F)F)n2)N1 (single isomer, unassigned) [Example 28B, (4S)-N-{(R or S)-(3-chloro-4-fluorophenyl)[1-(2,2,2-trifluoroethyl)-1H-pyrazol-3-yl]methyl}-2-oxoimidazolidine-4-carboxamide] | 436 |
| O=C1NC[C@@H](C(=O)NC(COC2CCC(F)(F)CC2)c2ccc(F)c(Cl)c2)N1 (single isomer, unassigned) [Example 29A, (4S)-N-{1-((R or S)-3-chloro-4-fluorophenyl)-2-[(4,4-difluoro-cyclohexyl)oxy]ethyl}-2-oxoimidazolidine-4-carboxamide] | 110 |
| O=C1NC[C@@H](C(=O)NC(COC2CCC(F)(F)CC2)c2ccc(F)c(Cl)c2)N1 (single isomer, unassigned) [Example 29B, (4S)-N-{1-((R or S)-3-chloro-4-fluorophenyl)-2-[(4,4-difluoro-cyclohexyl)oxy]ethyl}-2-oxoimidazolidine-4-carboxamide] | 161 |
| CC1(C)CC(C(NC(=O)[C@@H]2CNC(=O)N2)c2ccc(F)c(Cl)c2F)C1 (single isomer, unassigned) [Example 30A, (4S)-N-[(R or S)-(3-chloro-2,4-di-fluoro-phenyl)(3,3-dimethylcyclobutyl)meth-yl]-2-oxoimidazolidine-4-carboxamide] | 4.6 |
| CC1(C)CC(C(NC(=O)[C@@H]2CNC(=O)N2)c2ccc(F)c(Cl)c2F)C1 (single isomer, unassigned) [Example 30B, (4S)-N-[(R or S)-(3-chloro-2,4-di-fluorophenyl)(3,3-dimethylcyclobutyl)meth-yl]-2-oxoimidazolidine-4-carboxamide] | 458 |
| Cn1nc(C(F)(F)F)cc1C(NC(=O)[C@@H]1CNC(=O)N1)c1ccc(F)c(Cl)c1 (single isomer, unassigned) [Example 31A, (S)-N-((R or S)-(3-chloro-4-fluorophenyl)(1-methyl-3-(tri-fluoromethyl)-1H-pyrazol-5-yl)methyl)-2-oxoimidazolidine-4-carboxamide] | 5.2 |
| Cn1nc(C(F)(F)F)cc1C(NC(=O)[C@@H]1CNC(=O)N1)c1ccc(F)c(Cl)c1 (single isomer, unassigned) [Example 31B, (S)-N-((R or S)-(3-chloro-4-fluorophenyl)(1-methyl-3-(tri-fluoromethyl)-1H-pyrazol-5-yl)methyl)-2-oxoimidazolidine-4-carboxamide] | 268 |
| O=C1NC[C@@H](C(=O)NC(c2ccc(F)c(Cl)c2)[C@H]2CC[C@H](C(F)(F)F)CC2)N1 (single isomer, unassigned) [Example 32A, (4S)—N—((R or S)-(3-chloro-4-fluorophenyl)(trans-4-(trifluoromethyl)cyclohexyl)methyl)-2-oxoimidazolidine-4-carboxamide] | 3.4 |
| O=C1NC[C@@H](C(=O)NC(c2ccc(F)c(Cl)c2)[C@H]2CC[C@H](C(F)(F)F)CC2)N1 (single isomer, unassigned) [Example 32B, (4S)—N—((R or S)-(3-chloro-4-fluorophenyl)(trans-4-(trifluoro-methyl)cyclohexyl)methyl)-2-oxoimidazolidine-4-carboxamide] | 67 |
| O=C1NC[C@@H](C(=O)NC(c2ccc(OCC(F)(F)F)nc2)c2ccc(F)c(Cl)c2F)N1 (single isomer, unassigned) [Example 33A, (S)—N—((R or S)-(3-chloro-2,4-difluorophenyl)(6-(2,2,2-trifluoroethoxy)pyridin-3-yl)methyl)-2-oxoimidazolidine-4-carboxamide] | 1.3 |
